Broadly, the IC50 is the concentration that gives 50% inhibition. In general, Ki refers to the equilibrium dissociation constant of an inhibitor or competing ligand from its target.

One test concerns the target T1, Calcitonin receptor (Homo sapiens, UniProt P30988). Also: in other assays of this panel Not Active means under 50% inhibition at 10 µM.
T1 sequence (P30988 whole entry): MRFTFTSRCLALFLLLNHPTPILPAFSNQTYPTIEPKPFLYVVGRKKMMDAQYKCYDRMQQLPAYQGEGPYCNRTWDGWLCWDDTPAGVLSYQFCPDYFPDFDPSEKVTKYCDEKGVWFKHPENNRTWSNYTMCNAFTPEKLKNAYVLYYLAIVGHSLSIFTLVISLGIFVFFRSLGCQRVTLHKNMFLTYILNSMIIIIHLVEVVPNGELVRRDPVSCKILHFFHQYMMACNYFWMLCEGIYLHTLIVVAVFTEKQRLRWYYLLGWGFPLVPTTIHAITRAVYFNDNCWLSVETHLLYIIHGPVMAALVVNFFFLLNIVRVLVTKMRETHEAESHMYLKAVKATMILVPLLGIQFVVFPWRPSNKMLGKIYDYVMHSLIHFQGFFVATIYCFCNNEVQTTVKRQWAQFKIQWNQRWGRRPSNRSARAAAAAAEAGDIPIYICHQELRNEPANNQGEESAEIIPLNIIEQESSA
It counts as cell membranes, Membrane. The following applies: t47d.

Test [1] has as its target 5-hydroxytryptamine receptor 6 (Homo sapiens, UniProt P50406). It counts as cell membranes, HeLa, Membrane. To be noted: for Ki: read-out: Ki. As to all read-outs here: in other assays of this panel Not Active means under 50% inhibition at 10 µM.
Test [2] in a line: DRUGMATRIX: Sigma2 radioligand binding (ligand: [3H] Ifenprodil). It counts as cell membranes, Rattus norvegicus, Wistar, Brain, Membrane. The following applies: Not Active = under 50% inhibition at 10 µM.
The next test concerns the target Substance-P receptor (Homo sapiens, UniProt P25103). It counts as cell membranes, Membrane. To be noted: cho. Also: in other assays of this panel Not Active means under 50% inhibition at 10 µM.
The target of test [3] is Prostaglandin G/H synthase 1 (Homo sapiens, UniProt P23219). The test can be described thus: biochemical. The test is classed as tissue-based, Platelet. To be noted: platelet.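 Also: inhibition of COX-1 enzyme activity, with arachidonic acid supplied as substrate; in other assays of this panel Not Active means under 50% inhibition at 10 µM.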
Sequence of Prostaglandin G/H synthase 1 (P23219 whole entry): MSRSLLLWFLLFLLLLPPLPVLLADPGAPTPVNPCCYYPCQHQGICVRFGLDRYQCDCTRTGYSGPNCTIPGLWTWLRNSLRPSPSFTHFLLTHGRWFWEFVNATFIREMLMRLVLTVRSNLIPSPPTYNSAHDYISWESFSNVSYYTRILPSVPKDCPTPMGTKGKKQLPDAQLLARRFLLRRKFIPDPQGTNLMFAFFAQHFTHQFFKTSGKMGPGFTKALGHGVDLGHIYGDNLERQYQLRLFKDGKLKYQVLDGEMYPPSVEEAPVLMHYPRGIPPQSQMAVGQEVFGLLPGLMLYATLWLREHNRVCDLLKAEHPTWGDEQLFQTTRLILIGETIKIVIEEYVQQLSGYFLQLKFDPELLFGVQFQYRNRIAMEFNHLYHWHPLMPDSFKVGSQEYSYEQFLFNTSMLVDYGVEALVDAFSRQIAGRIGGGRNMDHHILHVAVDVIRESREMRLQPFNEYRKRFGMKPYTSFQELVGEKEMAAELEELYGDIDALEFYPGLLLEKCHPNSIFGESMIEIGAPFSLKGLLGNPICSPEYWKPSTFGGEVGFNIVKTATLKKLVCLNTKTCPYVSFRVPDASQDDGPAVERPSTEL
A further test has as its target T2, D(4) dopamine receptor (Homo sapiens, UniProt P21917).
T2 sequence (P21917 whole entry): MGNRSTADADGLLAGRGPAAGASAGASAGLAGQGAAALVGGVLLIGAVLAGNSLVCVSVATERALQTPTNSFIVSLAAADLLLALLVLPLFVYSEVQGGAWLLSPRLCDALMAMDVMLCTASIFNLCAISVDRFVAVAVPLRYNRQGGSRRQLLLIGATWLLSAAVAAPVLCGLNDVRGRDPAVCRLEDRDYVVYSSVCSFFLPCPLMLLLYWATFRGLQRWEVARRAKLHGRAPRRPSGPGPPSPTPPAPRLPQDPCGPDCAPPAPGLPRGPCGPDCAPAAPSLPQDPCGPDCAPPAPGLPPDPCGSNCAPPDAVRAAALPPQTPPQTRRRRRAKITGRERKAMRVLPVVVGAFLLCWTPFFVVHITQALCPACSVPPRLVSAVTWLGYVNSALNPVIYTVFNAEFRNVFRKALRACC
As to the kind of experiment: DRUGMATRIX: Dopamine D4.2 radioligand binding (ligand: [3H] Spiperone). The test is classed as cell membranes, Membrane. To be noted: cho-k1; Not Active = under 50% inhibition at 10 µM.

Test [4] concerns the target T3, Polyunsaturated fatty acid lipoxygenase ALOX15 (Oryctolagus cuniculus, UniProt P12530).
T3 sequence (P12530 whole entry): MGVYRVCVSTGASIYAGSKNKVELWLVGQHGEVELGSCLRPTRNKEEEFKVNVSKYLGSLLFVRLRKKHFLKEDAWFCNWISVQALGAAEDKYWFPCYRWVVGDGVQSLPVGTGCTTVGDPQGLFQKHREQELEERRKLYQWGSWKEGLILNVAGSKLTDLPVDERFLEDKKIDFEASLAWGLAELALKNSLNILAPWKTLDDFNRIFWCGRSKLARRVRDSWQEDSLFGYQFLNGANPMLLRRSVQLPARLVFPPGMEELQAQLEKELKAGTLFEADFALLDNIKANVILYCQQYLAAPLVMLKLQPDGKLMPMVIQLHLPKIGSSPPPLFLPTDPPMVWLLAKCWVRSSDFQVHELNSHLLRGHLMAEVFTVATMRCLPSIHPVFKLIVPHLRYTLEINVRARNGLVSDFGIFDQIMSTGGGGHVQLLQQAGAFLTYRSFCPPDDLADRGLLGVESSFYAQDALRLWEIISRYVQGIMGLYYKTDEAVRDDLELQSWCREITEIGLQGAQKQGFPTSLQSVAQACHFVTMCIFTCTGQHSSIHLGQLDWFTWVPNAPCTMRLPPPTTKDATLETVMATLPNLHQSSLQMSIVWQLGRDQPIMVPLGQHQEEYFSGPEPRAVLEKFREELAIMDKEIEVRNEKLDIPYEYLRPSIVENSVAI
As to the kind of experiment: biochemical. The test is classed as tissue-based, Reticulocytes.

Test [5] has as its target Delta-type opioid receptor (Homo sapiens, UniProt P41143). The test is classed as cell membranes, HEK293, Membrane. Also: in other assays of this panel Not Active means under 50% inhibition at 10 µM.
The target of test [6] is Mitogen-activated protein kinase 3 (Homo sapiens, UniProt P27361). The test can be described thus: DRUGMATRIX: Protein Serine/Threonine Kinase, ERK1 enzyme inhibition (substrate: Myelin Basic Protein). To be noted: Not Active = under 50% inhibition at 10 µM. Set-up: species or system Escherichia coli.
Sequence of Mitogen-activated protein kinase 3 (P27361 whole entry): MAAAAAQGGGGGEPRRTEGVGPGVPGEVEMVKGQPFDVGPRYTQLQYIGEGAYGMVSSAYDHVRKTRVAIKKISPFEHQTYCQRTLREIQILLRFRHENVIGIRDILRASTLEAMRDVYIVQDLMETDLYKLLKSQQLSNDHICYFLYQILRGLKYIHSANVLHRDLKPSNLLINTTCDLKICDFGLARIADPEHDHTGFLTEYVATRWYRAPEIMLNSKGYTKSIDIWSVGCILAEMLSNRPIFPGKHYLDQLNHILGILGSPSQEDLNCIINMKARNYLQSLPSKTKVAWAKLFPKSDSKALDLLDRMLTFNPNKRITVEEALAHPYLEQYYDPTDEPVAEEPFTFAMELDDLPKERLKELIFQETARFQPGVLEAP
In another test the target is Acetylcholinesterase (Homo sapiens, UniProt P22303). The test can be described thus: DRUGMATRIX: Acetylcholinesterase enzyme inhibition (substrate: acetylthiocholine). To be noted: Not Active = under 50% inhibition at 10 µM. The test is classed as cell-based, HEK293.
Sequence of Acetylcholinesterase (P22303 whole entry): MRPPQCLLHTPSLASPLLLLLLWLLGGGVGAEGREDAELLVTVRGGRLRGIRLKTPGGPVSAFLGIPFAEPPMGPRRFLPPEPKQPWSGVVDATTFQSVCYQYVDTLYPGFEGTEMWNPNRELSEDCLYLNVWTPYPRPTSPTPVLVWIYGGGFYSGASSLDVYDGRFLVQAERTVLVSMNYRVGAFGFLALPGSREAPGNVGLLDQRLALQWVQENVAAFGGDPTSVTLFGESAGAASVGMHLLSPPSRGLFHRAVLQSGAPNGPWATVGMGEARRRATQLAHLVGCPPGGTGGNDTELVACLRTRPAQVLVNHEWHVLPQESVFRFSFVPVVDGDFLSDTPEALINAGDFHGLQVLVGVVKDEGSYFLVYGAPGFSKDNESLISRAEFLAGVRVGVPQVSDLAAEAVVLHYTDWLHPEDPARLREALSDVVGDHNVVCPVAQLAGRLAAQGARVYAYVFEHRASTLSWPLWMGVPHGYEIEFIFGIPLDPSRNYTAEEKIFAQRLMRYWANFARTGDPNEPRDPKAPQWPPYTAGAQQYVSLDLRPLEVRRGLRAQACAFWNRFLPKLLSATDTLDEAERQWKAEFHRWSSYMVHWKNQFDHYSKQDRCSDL

Sequence of Substance-P receptor (P25103 whole entry): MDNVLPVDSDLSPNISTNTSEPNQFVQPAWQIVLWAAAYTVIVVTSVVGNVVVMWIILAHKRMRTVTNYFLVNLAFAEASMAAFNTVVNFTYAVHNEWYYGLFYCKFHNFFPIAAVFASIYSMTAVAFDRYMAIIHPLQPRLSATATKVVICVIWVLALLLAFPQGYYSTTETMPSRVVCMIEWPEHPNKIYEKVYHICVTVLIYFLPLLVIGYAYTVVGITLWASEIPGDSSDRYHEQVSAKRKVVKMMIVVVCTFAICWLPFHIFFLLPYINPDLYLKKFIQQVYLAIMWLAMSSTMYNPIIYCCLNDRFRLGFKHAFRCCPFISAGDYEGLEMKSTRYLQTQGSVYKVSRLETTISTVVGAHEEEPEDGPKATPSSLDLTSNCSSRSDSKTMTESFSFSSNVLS
Sequence of Delta-type opioid receptor (P41143 whole entry): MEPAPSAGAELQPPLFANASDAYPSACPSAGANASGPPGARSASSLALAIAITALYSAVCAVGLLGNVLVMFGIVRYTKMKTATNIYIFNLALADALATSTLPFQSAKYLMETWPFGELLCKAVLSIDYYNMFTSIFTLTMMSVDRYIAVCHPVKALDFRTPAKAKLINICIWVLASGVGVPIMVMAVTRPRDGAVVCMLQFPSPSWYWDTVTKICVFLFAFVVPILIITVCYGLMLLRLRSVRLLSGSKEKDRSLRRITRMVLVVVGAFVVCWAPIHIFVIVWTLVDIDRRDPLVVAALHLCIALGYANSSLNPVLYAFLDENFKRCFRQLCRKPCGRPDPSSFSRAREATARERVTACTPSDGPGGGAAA
Sequence of 5-hydroxytryptamine receptor 6 (P50406 whole entry): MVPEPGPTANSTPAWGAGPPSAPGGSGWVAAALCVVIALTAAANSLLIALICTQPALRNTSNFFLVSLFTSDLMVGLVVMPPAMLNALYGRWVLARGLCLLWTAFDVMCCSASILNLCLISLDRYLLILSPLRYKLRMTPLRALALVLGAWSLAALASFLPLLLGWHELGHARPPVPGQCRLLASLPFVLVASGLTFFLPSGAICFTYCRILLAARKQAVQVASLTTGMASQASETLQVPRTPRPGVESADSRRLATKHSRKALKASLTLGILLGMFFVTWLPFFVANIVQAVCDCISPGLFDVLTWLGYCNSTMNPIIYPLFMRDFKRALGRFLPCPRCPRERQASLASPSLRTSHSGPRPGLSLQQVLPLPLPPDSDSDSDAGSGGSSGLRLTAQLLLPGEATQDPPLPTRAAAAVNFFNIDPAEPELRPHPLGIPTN

On to `CC1=C(CC(=O)O)c2cc(F)ccc2/C1=C\c1ccc([S+](C)[O-])cc1` (stereo not given), for which the IC50 result (on Calcitonin receptor; in test [1] (hela); in test [2]; on Substance-P receptor; in test [3]; on D(4) dopamine receptor) was “Not Active” in each case. Moreover, the half-inhibitory concentration (IC50) entry (in test [4] (reticulocytes); in test [5] (hek293); in test [6]; on Acetylcholinesterase (hek293)) was “Not Active” in each case. Also, the inhibition constant (Ki) result in test [2] was “Not Active”.
As for `N[C@H](CSC(=S)NCc1ccccc1)C(=O)O`, the IC50 result (at Calcitonin receptor; in test [1] (hela); in [2]; against Substance-P receptor; in [3]; on D(4) dopamine receptor) was “Not Active” in each case. Moreover, the IC50 entry (in test [4] (reticulocytes); in [5] (hek293); in test [6]; at Acetylcholinesterase (hek293)) was “Not Active” in each case. Further, the Ki entry in test [2] was “Not Active”.
As to `CC(=O)N[C@@H]1[C@H](Oc2c3cc4cc2Oc2ccc(cc2Cl)[C@@H](O[C@@H]2O[C@@H](CO)[C@@H](O)[C@H](O)[C@@H]2NC(C)=O)[C@@H]2NC(=O)[C@H](NC(=O)[C@@H]4NC(=O)[C@H]4NC(=O)[C@@H](Cc5ccc(c(Cl)c5)O3)NC(=O)[C@H](N)c3ccc(O)c(c3)Oc3cc(O)cc4c3)c3ccc(O)c(c3)-c3c(O[C@H]4O[C@H](CO)[C@@H](O)[C@@H](O)[C@@H]4O)cc(O)cc3[C@@H](C(=O)O)NC2=O)O[C@@H](CO)[C@@H](O)[C@@H]1O`, the IC50 entry (at Calcitonin receptor; in [1] (hela); in [2]; against Substance-P receptor; in test [3]; at D(4) dopamine receptor) was “Not Active” throughout. Besides, the IC50 entry (in test [4] (reticulocytes); in test [5] (hek293); in [6]; against Acetylcholinesterase (hek293)) was “Not Active” throughout. The Ki entry in [2] is “Not Active”.
As for `Clc1ccc2c(c1)C(N1CCNCC1)=Nc1ccccc1O2` [AMOXAPINE], the IC50 entry (on Calcitonin receptor; at Substance-P receptor; in test [3]; at D(4) dopamine receptor; in test [4] (reticulocytes); in [5] (hek293)) was “Not Active” in each case. Further, the IC50 entry (in test [6]; against Acetylcholinesterase (hek293)) was “Not Active” in each case.
`COc1cc2c(c(OC)c1OC)-c1ccc(OC)c(=O)cc1[C@@H](NC(C)=O)CC2` [COLCHICINE]: the IC50 entry (on Calcitonin receptor; in [1] (hela); against Substance-P receptor; in test [3]; on D(4) dopamine receptor; in [4] (reticulocytes)) was “Not Active” throughout. Further, the IC50 entry (in test [5] (hek293); in test [6]; on Acetylcholinesterase (hek293)) was “Not Active” each time.
Regarding `CN1CCC(=C2c3ccccc3C=Cc3ccccc32)CC1` [CYPROHEPTADINE], the IC50 result on Calcitonin receptor is “Not Active”; in test [1] (read-out: IC50), 0.281 µM; at Substance-P receptor it was “Not Active”; in [3] it was “Not Active”; at D(4) dopamine receptor, “Not Active”; in [4] (reticulocytes) it was “Not Active”. In addition, the IC50 result (in test [5] (hek293); in test [6]; against Acetylcholinesterase (hek293)) was “Not Active” each time. Besides, the Ki in [1] amounted to 0.13 µM.
`CC/C(=C(/CC)c1ccc(O)cc1)c1ccc(O)cc1` [DIETHYLSTILBESTROL]: the IC50 entry at Calcitonin receptor is “Not Active”; in test [1] (read-out: IC50), 12.9 µM; on Substance-P receptor it was “Not Active”; on D(4) dopamine receptor it was “Not Active”; in [4] (read-out: IC50), 2.96 µM; in test [6], “Not Active”. The IC50 at Acetylcholinesterase (read-out: IC50) was 25.6 µM. For the same compound, the Ki in test [1] came to 5.99 µM.
With `CC(=O)N1CCN(c2ccc(OCC3COC(Cn4ccnc4)(c4ccc(Cl)cc4Cl)O3)cc2)CC1` (stereo not given) [KETOCONAZOLE], the IC50 entry at Calcitonin receptor was “Not Active”; in test [1] (hela), “Not Active”; in test [2] (read-out: IC50), 15.9 µM; on Substance-P receptor, “Not Active”; in [3], “Not Active”; at D(4) dopamine receptor, “Not Active”. For the same compound, the IC50 in [4] (read-out: IC50) is 5.42 µM; in test [5] (read-out: IC50) it was 12.8 µM; in test [6], “Not Active”; on Acetylcholinesterase (hek293) it was “Not Active”. The figures for the Ki in [2] (read-out: Ki) and in test [5] (read-out: Ki) were 9.79 µM and 4.51 µM, respectively.
For the compound `C=CCN1CC[C@]23c4c5ccc(O)c4O[C@H]2C(=O)CC[C@@]3(O)[C@H]1C5` [NALOXONE], the IC50 result (at Calcitonin receptor; in test [1] (hela); against Substance-P receptor; in [3]; on D(4) dopamine receptor; in test [4] (reticulocytes)) was “Not Active” throughout. Moreover, the IC50 entry (in test [6]; at Acetylcholinesterase (hek293)) was “Not Active” each time.
Consider `COCCOC(=O)C1=C(C)NC(C)=C(C(=O)OC(C)C)C1c1cccc([N+](=O)[O-])c1` (stereo not given) [NIMODIPINE], for which the IC50 result (on Calcitonin receptor; in test [1] (hela); in test [2]; against Substance-P receptor; in [3]; on D(4) dopamine receptor) was “Not Active” each time. Besides, the IC50 entry (in test [4] (reticulocytes); in [5] (hek293); in test [6]; at Acetylcholinesterase (hek293)) was “Not Active” throughout. Besides, the Ki result in test [2] is recorded as “Not Active”.
Consider `CC(C)NCC(O)COc1cccc2ccccc12` (stereo not given) [PROPRANOLOL], for which the half-inhibitory concentration (IC50) entry on Calcitonin receptor is “Not Active”; in test [1] (read-out: IC50), 3.06 µM; against Substance-P receptor, “Not Active”; in test [3] it was “Not Active”; at D(4) dopamine receptor, “Not Active”; in test [4] (reticulocytes), “Not Active”. The IC50 result (in test [5] (hek293); in test [6]; against Acetylcholinesterase (hek293)) was “Not Active” each time. Also, the Ki in test [1] stood at 1.42 µM.
Consider `COCCCOc1ccnc(C[S+]([O-])c2nc3ccccc3[nH]2)c1C` (stereo not given) [RABEPRAZOLE], for which the IC50 result (at Calcitonin receptor; in test [1] (hela); in test [2]; against Substance-P receptor; in [3]; on D(4) dopamine receptor) was “Not Active” in each case. The IC50 result (in test [4] (reticulocytes); in [5] (hek293); in test [6]; against Acetylcholinesterase (hek293)) was “Not Active” in each case. The Ki result in test [2] is listed as “Not Active”.
Take `O=C(c1ccc(OCCN2CCCCC2)cc1)c1c(-c2ccc(O)cc2)sc2cc(O)ccc12` [RALOXIFENE]: the IC50 result at Calcitonin receptor is “Not Active”; in [1] (hela) it was “Not Active”; in test [2] (read-out: IC50), 0.385 µM; at Substance-P receptor it was “Not Active”; in test [3] it was “Not Active”; on D(4) dopamine receptor, “Not Active”. Moreover, the IC50 result in test [4] (reticulocytes) is “Not Active”; in test [6] it was “Not Active”; at Acetylcholinesterase (read-out: IC50), 0.4 µM. Moreover, the Ki in [2] (read-out: Ki) is 0.237 µM.
Take `CC(C)(C)c1ccc(C(O)CCCN2CCC(C(O)(c3ccccc3)c3ccccc3)CC2)cc1` (stereo not given) [TERFENADINE]: the IC50 result (at Calcitonin receptor; in test [2]; against Substance-P receptor; in test [3]; on D(4) dopamine receptor; in test [4] (reticulocytes)) was “Not Active” throughout. Besides, the IC50 result (in test [5] (hek293); in test [6]; at Acetylcholinesterase (hek293)) was “Not Active” each time. The Ki entry in test [2] is recorded as “Not Active”.
